Laboratory results from patent US20240398762A1, “PHARMACEUTICAL COMPOSITION WITH ANALGESIC AND/OR ANTIPRURITIC FUNCTIONS AND APPLICATION THEREOF” (PENGEKIPHEN BIOTECH LIMITED COMPANY, priority 2022, published 2024).
Structures can show the parent of a compound that is named as a salt.

Columns and labels:
miR-96−/− mice = assay: Mechanical pain threshold (Von Frey paw withdrawal threshold) of hind paws after intragastric administration; format: in vivo, mouse; settings: 1 h after administration; for dose group exhibiting the best analgesic effect: three doses tested
Experimental: In order to screen an analgesic drug with excellent oral efficacy, analgesic effects of intragastric administration of Nav1.7 inhibitor and Nav1.8 inhibitor in eight 3-6-month-old miR-96^−/− mice ([…] BIOTECH LIMITED COMPANY) were tested.
Firstly, mechanical pain thresholds of hind paws of the miR-96^−/− mice were measured. The eight miR-96^−/− mice were placed on an iron frame and covered with a plexiglass cover. After 30 min, paw withdrawal thresholds (PWT) of the mice were measured using Von Frey (DanMic Global, CA, USA). […] 1 h after the intragastric administration of 30 μg/kg, 60 μg/kg or 90 μg/kg of PF-06305591, the mechanical pain thresholds of the hind paws of the miR-96″ mice were measured.

[1] = system: subjects with painful diabetic peripheral neuropathy; settings: McDonnell et al., Pain 2018; cited from earlier work

SMILES: NC(=O)[C@@H]1CC[C@H](c2ccc(OCc3ccccc3F)cc2)N1 [CNV1014802]
- analgesic effect versus solvent control group (miR-96−/− mice; 20 mg/kg intragastric): significant analgesic effects
- analgesic effect versus solvent control group (miR-96−/− mice; 30 mg/kg intragastric): significant analgesic effects
- analgesic effect versus solvent control group (miR-96−/− mice; 40 mg/kg intragastric): significant analgesic effects
- dose group exhibiting the best analgesic effect (miR-96−/− mice; intragastric): 30 mg/kg

SMILES: NCC1(CC(=O)O)CCCCC1 [Gabapentin]
- effect on mechanical pain thresholds (miR-96−/− mice; 50 mg/kg intragastric): significantly improve the mechanical pain thresholds

SMILES: CC(C)(N)c1ncc(-c2ccc(OC(F)(F)F)cc2)[nH]1 [PF-04885614, 1-methyl-1-[4-(4-trifluoromethoxy-phenyl)-1H-imidazol-2-yl]-ethylamine]
- analgesic effect versus solvent control group (miR-96−/− mice; 180 μg/kg intragastric): significantly better than that of the solvent control group
- analgesic effect versus solvent control group (miR-96−/− mice; 270 μg/kg intragastric): significantly better than that of the solvent control group
- dose group exhibiting the best analgesic effect (miR-96−/− mice; intragastric): 0.18 mg/kg

SMILES: Nc1n[nH]cc1-c1cc(Cl)ccc1Oc1cc(F)c(S(=O)(=O)Nc2cscn2)cc1Cl [PF-05089771, 4-[2-(3-amino-1H-pyrazol-4-yl)-4-chlorophenoxy]-5-chloro-2-fluoro-N-4-thiazolylbenzenesulfonamide tosylate]
- analgesic effect in clinical studies [1]: does not exhibit desired analgesic effect
- analgesic effect versus solvent control group (miR-96−/− mice; 4 mg/kg intragastric): significantly better than that of the solvent control group
- analgesic effect versus solvent control group (miR-96−/− mice; 6 mg/kg intragastric): significantly better than that of the solvent control group
- efficacy of the 6 mg/kg-dose group compared with the 4 mg/kg-dose group (miR-96−/− mice; intragastric): not better than that of the 4 mg/kg-dose group

SMILES: C[C@@H](C(N)=O)[C@H](N)c1nc2cc(C(C)(C)C)ccc2[nH]1 [PF-06305591, (αR, βS)-β-Amino-6-(1,1-dimethylethyl)-α-methyl-1H-benzimidazole-2-propanamide dihydrate]
- analgesic effect versus solvent control group (miR-96−/− mice; 60 μg/kg intragastric): significantly better than that of the solvent control group
- analgesic effect versus solvent control group (miR-96−/− mice; 90 μg/kg intragastric): significantly better than that of the solvent control group
- dose group exhibiting the best analgesic effect (miR-96−/− mice; intragastric): 0.06 mg/kg

SMILES: N#Cc1cc(S(=O)(=O)Nc2ncns2)ccc1Oc1ccc(-c2cccc(C(F)(F)F)c2)cc1-c1ccnc(CNCCC2CCNCC2)c1 [PF-06456384, 3-cyano-4-[[3-[2-[[[2-(4-piperidinyl)ethyl]amino]methyl]-4-pyridinyl]-3′-(trifluoromethyl)[1,1′-biphenyl]-4-yl]oxy]-N-1,2,4-thiadiazol-5-yl-benzenesulfonamide trihydrochloride]
- analgesic effect versus solvent control group (miR-96−/− mice; 1 mg/kg intragastric): significant analgesic effects
- analgesic effect versus solvent control group (miR-96−/− mice; 2 mg/kg intragastric): significant analgesic effects
- analgesic effect versus solvent control group (miR-96−/− mice; 3 mg/kg intragastric): significant analgesic effects
- dose group exhibiting the best analgesic effect (miR-96−/− mice; intragastric): 2 mg/kg
